Measurements taken from patent US20240180836A1, “Cationic Lipid Compound and Composition for Delivery of Nucleic Acids and Use Thereof” (Shenzhen Rhegen Biotechnology Co., Ltd., priority 2022, published 2024).

Test: In vivo metabolic rates of cationic lipids (cationic lipid content in liver by HPLC-CAD)
Details: 5 ug EPO-mRNA-lipid nanoparticles, tail vein injection, female Balb/c mice, 1 h to 48 h after injection, compared with DLin-MC3-DMA
Description: 5 ug EPO-mRNA-lipid nanoparticles were injected via tail vein injection in 6-8 week old female Balb/c mice, prepared as in Example 13. After injection, the mice were executed at different time points (1 h, 3 h, 6 h, 24 h, 48 h after injection). The livers were taken and crushed, and the lipids were extracted from them with chloroform in three times, and the extracts were finally combined. After spin distillation to remove chloroform, methanol was added to dissolve the sample, and the cationic lipid content therein was analyzed by HPLC-CAD (Thermo Vanquish), with an Acclaim™ C18 column as the analytical column, a 0.5% TEAA aqueous solution as mobile phase A and a 0.5% TEAA methanol solution as mobile phase B. The sample was eluted according to the gradient in Table 2 below.

CCCCCCCCCSC(=O)CCCCCCCN(CCO)CCCCCCCC(=O)SC(CCCCCCCC)CCCCCCCC [Compound 9]
In vivo metabolism rate of cationic lipid (FIG. 3): metabolized in vivo faster than DLin-MC3-DMA
